# Measured values taken from PMC8849385, “ATP-responsive biomolecular condensates tune bacterial kinase signaling” (Science Advances, 2022).
# Assays:
# [1] = molecular target: T1, SpmX (ΔTM) (Caulobacter vibrioides, UniProt A0A0H3C9Y4); assay: fluorescence microscopy of condensate dissolution; details: 5 μM protein, 5% Cy3 labelled; 5 mM MgCl2, 100 mM KCl, pH 7.4, 1 hour; solute effect on phase separation, no binding constant
# T1 construct: cytoplasmic portion, AA 1 to 355 of 431, C-terminal TEV-His10 cleaved; E. coli BL21(DE3)
# [2] = molecular target: T2, PopZ (Caulobacter vibrioides, UniProt A0A0H3C7Y4); assay: fluorescence microscopy of condensate dissolution; details: 5 μM protein, 1% Atto488 labelled; 5 mM MgCl2, 100 mM KCl, pH 7.4, 1 hour; solute effect on phase separation, no binding constant
# T2 construct: full length, AA 1 to 177, C-terminal TEV-His6 cleaved; E. coli BL21(DE3)
# T2 sequence (A0A0H3C7Y4 entry or part of it): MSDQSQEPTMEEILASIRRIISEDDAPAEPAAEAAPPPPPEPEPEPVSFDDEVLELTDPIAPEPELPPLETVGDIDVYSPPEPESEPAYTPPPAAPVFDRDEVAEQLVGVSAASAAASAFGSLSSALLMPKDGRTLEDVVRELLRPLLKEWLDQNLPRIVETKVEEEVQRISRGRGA
# T1 sequence (A0A0H3C9Y4 entry or part of it, stated change not applied): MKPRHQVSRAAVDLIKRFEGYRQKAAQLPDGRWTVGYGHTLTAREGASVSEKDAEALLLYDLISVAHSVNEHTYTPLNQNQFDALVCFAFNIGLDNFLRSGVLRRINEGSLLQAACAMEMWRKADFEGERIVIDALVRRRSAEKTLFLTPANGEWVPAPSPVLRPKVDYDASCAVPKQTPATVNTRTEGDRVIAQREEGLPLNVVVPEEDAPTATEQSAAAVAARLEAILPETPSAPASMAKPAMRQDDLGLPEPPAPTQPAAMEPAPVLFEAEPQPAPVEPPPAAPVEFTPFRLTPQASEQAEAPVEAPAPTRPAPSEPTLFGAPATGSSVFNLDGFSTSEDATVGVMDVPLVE
compound,measurement,setting,value
Nc1ncnc2c1ncn2[C@@H]1O[C@H](COP(=O)(O)OP(=O)(O)OP(=O)(O)O)[C@@H](O)[C@H]1O [ATP],dissolution concentration of condensates,[1],2 mM
same,dissolution concentration of condensates,[2],1 mM
